The values that follow come from ChEMBL document CHEMBL1152560, “Substituted 2-arylbenzothiazoles as kinase inhibitors: hit-to-lead optimization” (Bioorg Med Chem, 2009).

For test [1], the target named is Serine/threonine-protein kinase WNK3 (Homo sapiens) (UniProt Q9BYP7). The test is described as follows: Residual activity of WNK3 at 10 uM by microplate scintillation counting.
Test [2] has as its target Tyrosine-protein kinase Yes (Homo sapiens) (UniProt P07947). The experiment in a line: Residual activity of YES at 10 uM by microplate scintillation counting.
Test [3] has as its target Protein kinase C eta type (Homo sapiens) (UniProt P24723). The experiment in a line: Residual activity of PKCeta at 1 uM by microplate scintillation counting.
Test [4] addresses T1, Inhibitor of nuclear factor kappa-B kinase subunit beta (Homo sapiens) (UniProt O14920).
T1 sequence (whole entry): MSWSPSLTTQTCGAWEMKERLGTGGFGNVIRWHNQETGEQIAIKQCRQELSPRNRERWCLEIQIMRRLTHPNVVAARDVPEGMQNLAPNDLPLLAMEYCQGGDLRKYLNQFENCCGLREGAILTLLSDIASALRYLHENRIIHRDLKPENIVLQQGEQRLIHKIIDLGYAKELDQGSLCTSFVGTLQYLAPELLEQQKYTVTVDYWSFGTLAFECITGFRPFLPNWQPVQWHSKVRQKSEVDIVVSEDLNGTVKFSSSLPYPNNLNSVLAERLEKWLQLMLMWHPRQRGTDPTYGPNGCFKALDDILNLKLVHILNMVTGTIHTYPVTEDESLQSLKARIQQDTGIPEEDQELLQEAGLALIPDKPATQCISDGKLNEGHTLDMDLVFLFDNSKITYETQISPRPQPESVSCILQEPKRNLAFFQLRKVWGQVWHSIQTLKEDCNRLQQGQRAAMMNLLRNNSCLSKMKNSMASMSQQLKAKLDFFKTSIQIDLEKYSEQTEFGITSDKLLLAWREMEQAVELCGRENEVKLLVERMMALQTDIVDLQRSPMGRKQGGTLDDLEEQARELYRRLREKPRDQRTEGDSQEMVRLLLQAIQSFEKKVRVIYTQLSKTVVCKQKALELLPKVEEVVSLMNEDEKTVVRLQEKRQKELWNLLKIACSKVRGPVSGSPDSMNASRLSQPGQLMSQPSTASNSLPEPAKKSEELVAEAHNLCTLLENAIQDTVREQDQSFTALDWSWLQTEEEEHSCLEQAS
The experiment in a line: Residual activity of IKK-beta at 1 uM by microplate scintillation counting.

Test [5] addresses T2, Lymphokine-activated killer T-cell-originated protein kinase (Homo sapiens) (UniProt Q96KB5).
T2 sequence (whole entry): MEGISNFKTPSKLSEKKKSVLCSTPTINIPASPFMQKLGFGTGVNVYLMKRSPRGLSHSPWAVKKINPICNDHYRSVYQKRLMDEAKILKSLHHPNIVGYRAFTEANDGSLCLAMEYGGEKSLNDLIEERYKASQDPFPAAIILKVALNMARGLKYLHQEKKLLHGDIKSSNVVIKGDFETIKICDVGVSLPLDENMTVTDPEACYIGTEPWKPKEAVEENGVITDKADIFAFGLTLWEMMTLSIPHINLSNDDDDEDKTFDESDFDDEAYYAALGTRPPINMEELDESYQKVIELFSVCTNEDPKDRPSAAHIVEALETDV
The experiment in a line: Residual activity of PBK at 1 uM by microplate scintillation counting.

For test [6], the target named is Serine/threonine-protein kinase MARK2 (Homo sapiens) (UniProt Q7KZI7). The test is described as follows: Residual activity of MARK2 at 1 uM by microplate scintillation counting.
Test [7] concerns the target Serine/threonine-protein kinase PAK 2 (Homo sapiens) (UniProt Q13177). The experiment in a line: Residual activity of PAK2 at 0.1 uM by microplate scintillation counting.
Test [8] concerns the target CDK8/Cyclin C (Homo sapiens) (UniProt P49336+P24863). The test is described as follows: Residual activity of CDK8/Cyclin C at 0.1 uM by microplate scintillation counting. It counts as protein-complex assay.
In test [9] the target is Vascular endothelial growth factor receptor 2 (Homo sapiens, UniProt P35968). The test is described as follows: Residual activity of VEGFR2 at 1 uM by microplate scintillation counting.
Test [10] concerns the target CDK9/cyclin T1 (Homo sapiens) (UniProt O60563+P50750). The test is described as follows: Residual activity of CDK9/Cyclin T at 1 uM by microplate scintillation counting. It counts as protein-complex assay.
For test [11], the target named is Mitogen-activated protein kinase 8 (Homo sapiens) (UniProt P45983). The test is described as follows: Residual activity of JNK1 at 10 uM by microplate scintillation counting.
The target of test [12] is Ephrin type-A receptor 7 (Homo sapiens) (UniProt Q15375). The experiment in a line: Residual activity of EPHA7 at 10 uM by microplate scintillation counting.
Test [13] concerns the target Tyrosine-protein kinase Fer (Homo sapiens) (UniProt P16591). The test is described as follows: Residual activity of FER at 0.1 uM by microplate scintillation counting.
For test [14], the target named is Cyclin-dependent kinase 16 (Homo sapiens) (UniProt Q00536). The experiment in a line: Residual activity of PCTAIRE1 at 1 uM by microplate scintillation counting.
The target in test [15] is T3, NUAK family SNF1-like kinase 1 (Homo sapiens) (UniProt O60285).
T3 sequence (whole entry): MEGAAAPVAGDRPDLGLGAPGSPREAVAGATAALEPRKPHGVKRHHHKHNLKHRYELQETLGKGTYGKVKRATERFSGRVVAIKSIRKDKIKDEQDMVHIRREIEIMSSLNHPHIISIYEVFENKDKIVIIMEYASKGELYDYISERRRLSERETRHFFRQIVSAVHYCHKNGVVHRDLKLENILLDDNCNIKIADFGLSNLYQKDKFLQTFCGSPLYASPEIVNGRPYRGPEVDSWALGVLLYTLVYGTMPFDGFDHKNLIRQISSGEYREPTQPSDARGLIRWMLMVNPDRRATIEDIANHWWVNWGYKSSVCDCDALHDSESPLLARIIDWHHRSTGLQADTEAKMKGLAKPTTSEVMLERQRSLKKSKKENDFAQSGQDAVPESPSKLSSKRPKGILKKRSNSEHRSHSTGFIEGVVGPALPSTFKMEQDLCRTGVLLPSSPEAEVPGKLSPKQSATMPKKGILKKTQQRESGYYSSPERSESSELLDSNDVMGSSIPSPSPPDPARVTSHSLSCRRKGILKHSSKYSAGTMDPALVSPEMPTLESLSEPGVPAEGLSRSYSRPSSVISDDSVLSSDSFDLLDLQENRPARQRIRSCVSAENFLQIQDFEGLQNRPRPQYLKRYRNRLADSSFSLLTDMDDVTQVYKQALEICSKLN
The test is described as follows: Residual activity of ARK5 at 10 uM by microplate scintillation counting.

Sequence of Mitogen-activated protein kinase 8 (Homo sapiens) (P45983 whole entry): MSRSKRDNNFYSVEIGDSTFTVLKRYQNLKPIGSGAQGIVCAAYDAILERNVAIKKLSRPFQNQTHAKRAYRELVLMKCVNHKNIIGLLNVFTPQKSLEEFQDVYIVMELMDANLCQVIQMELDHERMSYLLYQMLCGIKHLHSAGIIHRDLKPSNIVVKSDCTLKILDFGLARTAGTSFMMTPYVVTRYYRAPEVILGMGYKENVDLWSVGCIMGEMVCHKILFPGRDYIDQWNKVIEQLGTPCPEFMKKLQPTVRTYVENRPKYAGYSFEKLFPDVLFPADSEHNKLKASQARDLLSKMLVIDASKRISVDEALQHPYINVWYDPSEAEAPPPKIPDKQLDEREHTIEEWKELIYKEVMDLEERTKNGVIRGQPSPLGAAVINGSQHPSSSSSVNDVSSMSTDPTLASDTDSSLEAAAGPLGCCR
Sequence of Cyclin-dependent kinase 16 (Homo sapiens) (Q00536 whole entry): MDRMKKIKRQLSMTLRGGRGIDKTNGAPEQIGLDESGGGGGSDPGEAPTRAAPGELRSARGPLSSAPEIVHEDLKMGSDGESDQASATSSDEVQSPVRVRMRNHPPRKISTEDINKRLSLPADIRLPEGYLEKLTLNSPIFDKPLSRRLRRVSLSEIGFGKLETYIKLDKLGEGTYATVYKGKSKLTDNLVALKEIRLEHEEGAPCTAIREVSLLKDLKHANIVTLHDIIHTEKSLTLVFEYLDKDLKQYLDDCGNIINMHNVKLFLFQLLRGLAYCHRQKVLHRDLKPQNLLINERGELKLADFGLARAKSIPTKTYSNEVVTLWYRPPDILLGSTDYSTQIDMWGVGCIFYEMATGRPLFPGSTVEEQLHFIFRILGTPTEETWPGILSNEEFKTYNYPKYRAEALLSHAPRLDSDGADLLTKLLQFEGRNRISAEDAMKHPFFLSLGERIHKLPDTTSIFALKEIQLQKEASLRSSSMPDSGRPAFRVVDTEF
Sequence of Serine/threonine-protein kinase WNK3 (Homo sapiens) (Q9BYP7 whole entry): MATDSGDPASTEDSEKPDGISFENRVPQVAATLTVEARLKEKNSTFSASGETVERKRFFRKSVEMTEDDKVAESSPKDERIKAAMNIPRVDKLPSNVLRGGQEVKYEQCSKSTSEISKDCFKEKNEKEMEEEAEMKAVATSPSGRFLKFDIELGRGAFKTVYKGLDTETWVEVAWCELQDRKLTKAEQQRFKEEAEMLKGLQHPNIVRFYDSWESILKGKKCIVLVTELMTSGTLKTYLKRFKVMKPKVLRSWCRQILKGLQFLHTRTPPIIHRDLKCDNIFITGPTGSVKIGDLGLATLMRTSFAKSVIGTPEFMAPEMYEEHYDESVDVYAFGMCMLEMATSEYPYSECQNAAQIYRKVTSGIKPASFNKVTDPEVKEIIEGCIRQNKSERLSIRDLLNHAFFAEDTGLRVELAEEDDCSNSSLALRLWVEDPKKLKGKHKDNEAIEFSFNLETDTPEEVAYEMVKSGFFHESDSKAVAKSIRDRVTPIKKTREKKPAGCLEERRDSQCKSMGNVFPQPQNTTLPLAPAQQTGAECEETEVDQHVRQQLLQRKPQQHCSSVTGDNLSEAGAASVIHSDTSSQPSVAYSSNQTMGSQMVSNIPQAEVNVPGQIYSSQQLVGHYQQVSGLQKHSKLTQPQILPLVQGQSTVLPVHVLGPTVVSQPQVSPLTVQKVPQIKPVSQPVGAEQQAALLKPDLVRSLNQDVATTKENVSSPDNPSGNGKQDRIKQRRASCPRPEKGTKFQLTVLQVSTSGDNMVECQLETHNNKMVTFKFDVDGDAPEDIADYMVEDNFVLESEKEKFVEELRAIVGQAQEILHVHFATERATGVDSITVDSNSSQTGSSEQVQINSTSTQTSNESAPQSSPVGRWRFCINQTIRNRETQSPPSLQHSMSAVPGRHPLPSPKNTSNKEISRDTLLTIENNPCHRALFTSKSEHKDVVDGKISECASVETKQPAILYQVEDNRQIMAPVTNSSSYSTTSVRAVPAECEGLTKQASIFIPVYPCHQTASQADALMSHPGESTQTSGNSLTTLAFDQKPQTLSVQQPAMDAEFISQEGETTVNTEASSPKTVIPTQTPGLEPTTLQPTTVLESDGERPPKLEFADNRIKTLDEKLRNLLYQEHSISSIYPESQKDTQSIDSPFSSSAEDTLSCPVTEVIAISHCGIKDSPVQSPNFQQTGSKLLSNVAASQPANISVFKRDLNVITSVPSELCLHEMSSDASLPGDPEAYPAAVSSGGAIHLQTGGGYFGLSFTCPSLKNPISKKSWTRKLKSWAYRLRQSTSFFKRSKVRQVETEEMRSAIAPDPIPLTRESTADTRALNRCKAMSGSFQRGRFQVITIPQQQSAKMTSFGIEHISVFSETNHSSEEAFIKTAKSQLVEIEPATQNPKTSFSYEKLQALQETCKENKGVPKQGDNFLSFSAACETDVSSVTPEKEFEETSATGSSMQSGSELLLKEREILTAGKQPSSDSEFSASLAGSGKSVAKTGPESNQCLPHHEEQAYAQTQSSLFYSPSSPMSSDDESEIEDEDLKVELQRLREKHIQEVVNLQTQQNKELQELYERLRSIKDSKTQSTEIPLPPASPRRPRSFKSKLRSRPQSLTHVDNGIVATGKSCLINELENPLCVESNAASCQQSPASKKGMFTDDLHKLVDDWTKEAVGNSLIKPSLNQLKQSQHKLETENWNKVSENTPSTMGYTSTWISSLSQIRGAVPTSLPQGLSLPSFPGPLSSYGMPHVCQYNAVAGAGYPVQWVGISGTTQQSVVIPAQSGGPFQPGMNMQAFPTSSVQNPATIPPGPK
Sequence of Protein kinase C eta type (Homo sapiens) (P24723 whole entry): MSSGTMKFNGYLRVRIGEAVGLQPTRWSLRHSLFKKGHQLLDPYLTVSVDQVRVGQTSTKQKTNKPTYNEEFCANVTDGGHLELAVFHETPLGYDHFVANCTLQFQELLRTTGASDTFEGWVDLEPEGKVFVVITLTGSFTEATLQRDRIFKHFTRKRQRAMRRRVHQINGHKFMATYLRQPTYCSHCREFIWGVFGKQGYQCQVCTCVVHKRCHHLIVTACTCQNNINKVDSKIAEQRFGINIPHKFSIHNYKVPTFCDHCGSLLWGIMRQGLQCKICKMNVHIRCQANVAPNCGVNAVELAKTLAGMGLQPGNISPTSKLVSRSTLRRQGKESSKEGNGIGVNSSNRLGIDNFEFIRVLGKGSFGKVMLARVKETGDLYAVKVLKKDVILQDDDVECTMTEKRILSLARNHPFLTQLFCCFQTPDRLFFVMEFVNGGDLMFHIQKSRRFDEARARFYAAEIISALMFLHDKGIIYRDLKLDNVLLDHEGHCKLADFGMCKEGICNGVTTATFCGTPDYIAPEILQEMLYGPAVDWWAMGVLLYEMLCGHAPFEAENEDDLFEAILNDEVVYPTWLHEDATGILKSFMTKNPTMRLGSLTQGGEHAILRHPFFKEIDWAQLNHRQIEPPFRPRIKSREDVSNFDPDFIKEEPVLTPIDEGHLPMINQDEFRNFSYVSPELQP
Sequence of Tyrosine-protein kinase Fer (Homo sapiens) (P16591 whole entry, looked up): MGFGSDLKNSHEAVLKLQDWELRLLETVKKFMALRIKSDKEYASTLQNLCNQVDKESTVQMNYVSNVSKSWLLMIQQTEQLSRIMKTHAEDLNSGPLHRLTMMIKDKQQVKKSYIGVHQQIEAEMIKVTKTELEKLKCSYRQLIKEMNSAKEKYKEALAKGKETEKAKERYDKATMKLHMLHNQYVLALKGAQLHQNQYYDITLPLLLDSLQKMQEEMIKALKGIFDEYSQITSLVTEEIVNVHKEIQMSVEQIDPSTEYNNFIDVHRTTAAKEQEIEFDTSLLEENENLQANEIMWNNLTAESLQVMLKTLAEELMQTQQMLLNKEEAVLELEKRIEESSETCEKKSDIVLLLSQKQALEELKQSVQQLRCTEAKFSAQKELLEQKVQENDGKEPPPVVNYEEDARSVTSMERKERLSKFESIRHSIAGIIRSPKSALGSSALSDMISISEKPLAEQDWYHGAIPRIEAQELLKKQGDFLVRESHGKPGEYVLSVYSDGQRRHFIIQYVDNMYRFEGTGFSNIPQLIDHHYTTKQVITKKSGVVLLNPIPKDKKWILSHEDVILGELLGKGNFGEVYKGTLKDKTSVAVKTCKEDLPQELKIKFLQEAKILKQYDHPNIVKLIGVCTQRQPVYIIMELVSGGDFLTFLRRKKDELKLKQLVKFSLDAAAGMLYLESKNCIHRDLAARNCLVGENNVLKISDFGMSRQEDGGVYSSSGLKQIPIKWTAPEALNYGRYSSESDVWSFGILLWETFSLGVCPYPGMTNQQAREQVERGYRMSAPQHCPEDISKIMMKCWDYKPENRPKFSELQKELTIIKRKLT
Sequence of Serine/threonine-protein kinase MARK2 (Homo sapiens) (Q7KZI7 whole entry): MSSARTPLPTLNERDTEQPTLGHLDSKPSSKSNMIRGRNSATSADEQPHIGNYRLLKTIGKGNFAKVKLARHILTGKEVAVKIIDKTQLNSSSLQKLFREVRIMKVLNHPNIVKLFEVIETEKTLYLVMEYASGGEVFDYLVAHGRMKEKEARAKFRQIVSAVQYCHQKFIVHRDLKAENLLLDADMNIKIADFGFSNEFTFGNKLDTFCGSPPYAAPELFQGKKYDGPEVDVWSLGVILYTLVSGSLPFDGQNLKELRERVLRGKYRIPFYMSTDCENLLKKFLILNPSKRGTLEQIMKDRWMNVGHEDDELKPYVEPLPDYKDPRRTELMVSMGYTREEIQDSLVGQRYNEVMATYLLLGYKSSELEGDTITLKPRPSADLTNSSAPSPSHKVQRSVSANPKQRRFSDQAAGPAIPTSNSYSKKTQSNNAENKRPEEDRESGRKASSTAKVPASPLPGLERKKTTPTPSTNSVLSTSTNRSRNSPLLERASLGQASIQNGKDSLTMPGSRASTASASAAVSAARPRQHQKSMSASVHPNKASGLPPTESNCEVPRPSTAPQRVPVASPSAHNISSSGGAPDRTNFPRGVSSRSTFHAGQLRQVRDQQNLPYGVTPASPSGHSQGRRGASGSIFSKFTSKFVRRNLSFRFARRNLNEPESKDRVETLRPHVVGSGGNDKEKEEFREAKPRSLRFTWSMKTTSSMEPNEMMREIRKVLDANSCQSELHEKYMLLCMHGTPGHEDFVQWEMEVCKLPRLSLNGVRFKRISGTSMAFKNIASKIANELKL

Consider `COc1cc2c(Oc3ccc(-c4nc5ccccc5s4)cc3)ncnc2cc1OCCCN1CCN(C)CC1`, for which the residual activity in test [1] was 23%; in test [2], 55%; in test [3], 92%; in test [4] it was 86%; in test [5], 100%; in [6] it was 74%. For the same compound, the residual activity turned out to be 111% in test [7]; 87% in test [8]; 40% in [9]; 102% in [10]; 272% in test [11]; 116% in test [12]. The residual activity was found to be 104% in test [13], 88% in test [14] and 127% in test [15].
Consider `COc1cc2c(Oc3ccc(-c4nc5ccccc5s4)cc3)ncnc2cc1OCCCN1CCCC1`, for which the residual activity was 21% in [1]; 101% in test [2]; 122% in test [3]; 98% in test [4]; 103% in [5]; 86% in test [6]. Moreover, the residual activity in test [7] turned out to be 93%; in test [8], 94%; in test [9] it was 49%; in test [10], 93%; in [11], 305%; in test [12], 108%. Further, the residual activity in test [13] was determined as 96%; in test [14], 81%; in test [15] it was 109%.
As to `COc1cc2c(Oc3ccc(-c4nc5ccccc5s4)cc3F)ncnc2cc1OCCCN1CCN(C)CC1`, the residual activity amounted to 39% in test [1]; 14% in test [2]; 97% in test [3]; 88% in test [4]; 96% in test [5]; 87% in [6]. Further, the residual activity in test [7] was determined as 97%; in test [8] it was 79%; in test [9], 53%; in test [10] it was 92%; in test [11], 264%; in test [12], 49%. Besides, the residual activity worked out at 108% in test [13], 86% in test [14] and 139% in [15].
